Results taken from patent US8815857B2 (Boehringer Ingelheim International GmbH, priority 2011, dated 2014).
Values after ≈ are worked out from the molar mass of the structure shown.

Columns and labels:
[1] = Assessment of solubility: HT solubility in pION buffer, UV spectrophotometry; settings: for solubility: kinetic from dmso stock
[2] = molecular target: T1, Recombinant human soluble guanylate cyclase (sGC), alpha 1 / beta 1 subunits, heme-free (Homo sapiens, UniProt Q02108+Q02153); test: Molecular assay: cGMP formation by heme-free recombinant sGC (CisBio cGMP detection kit); type: biochemical; settings: 300 pM heme-free sGC, 37° C., 60 min, cGMP readout; read-out: EC50 nM, Activity of Compounds in Molecular Assay
T1 construct: histidine tag (C); made in house; host or cells: Sf9 insect cells (baculovirus coinfection)
T1 sequence (Q02108 1-690 partner): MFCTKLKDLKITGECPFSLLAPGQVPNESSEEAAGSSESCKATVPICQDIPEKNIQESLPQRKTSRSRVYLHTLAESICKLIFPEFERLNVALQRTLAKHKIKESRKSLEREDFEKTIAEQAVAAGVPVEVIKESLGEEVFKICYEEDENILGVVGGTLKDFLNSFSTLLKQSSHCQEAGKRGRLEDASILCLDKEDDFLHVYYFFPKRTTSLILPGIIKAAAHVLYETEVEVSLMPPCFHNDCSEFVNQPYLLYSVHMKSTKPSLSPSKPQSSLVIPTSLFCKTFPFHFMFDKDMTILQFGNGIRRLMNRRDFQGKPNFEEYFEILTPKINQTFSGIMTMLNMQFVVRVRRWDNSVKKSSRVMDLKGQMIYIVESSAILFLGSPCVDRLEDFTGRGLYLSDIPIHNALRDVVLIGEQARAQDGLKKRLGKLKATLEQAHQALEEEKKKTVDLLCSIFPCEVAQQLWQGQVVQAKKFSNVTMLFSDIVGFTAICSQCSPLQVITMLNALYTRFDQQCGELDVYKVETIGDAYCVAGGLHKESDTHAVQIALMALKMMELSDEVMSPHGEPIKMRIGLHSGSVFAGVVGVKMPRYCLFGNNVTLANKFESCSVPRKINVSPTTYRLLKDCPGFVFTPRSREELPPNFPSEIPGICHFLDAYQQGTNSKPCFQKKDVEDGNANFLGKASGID
T1 sequence (Q02153 1-619): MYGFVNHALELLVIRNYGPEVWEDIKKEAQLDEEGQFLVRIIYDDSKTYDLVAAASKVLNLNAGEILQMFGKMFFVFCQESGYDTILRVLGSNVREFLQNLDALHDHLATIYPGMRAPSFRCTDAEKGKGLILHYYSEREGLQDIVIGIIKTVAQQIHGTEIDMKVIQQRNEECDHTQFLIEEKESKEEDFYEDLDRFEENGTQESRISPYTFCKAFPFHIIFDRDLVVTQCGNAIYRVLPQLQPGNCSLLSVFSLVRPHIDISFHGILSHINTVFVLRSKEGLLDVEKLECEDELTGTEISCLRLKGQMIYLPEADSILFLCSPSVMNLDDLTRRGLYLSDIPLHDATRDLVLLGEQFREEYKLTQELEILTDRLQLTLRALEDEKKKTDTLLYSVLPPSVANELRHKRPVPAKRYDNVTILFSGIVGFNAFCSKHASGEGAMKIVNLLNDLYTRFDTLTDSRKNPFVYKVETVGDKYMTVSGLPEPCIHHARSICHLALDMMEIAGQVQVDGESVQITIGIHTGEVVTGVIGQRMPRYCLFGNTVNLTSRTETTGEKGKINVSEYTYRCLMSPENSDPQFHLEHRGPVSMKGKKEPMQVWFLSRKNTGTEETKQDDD
Description: Recombinant human soluble guanylate cyclase (sGC) is purified from Sf9 insect cells coinfected with baculoviruses expressing the alpha 1 or beta 1 subunit of sGC, both with a C-terminal histidine tag. Heme-free sGC is prepared by treating cell lysate with a final concentration of 0.5% Tween 20 prior to purification on a nickel affinity column.
sGC catalyzes the conversion of guanosine-5′-triphosphate (GTP) to cyclic guanosine monophosphate (cGMP). The activity of sGC is measured in vitro using the commercially available CisBio cGMP detection kit (catalog # 62GM2PEB) in a 384 well format. In brief, 300 pM heme-free sGC is incubated in reaction buffer (50 mM MOPS pH 6.8, 0.2 N KOH, 50 mM NaCl, 2 mM MgCl2, 0.1% BSA, 1.25 mM IBMX, 0.25 mM TCEP, 50 nM GTP) in the presence or absence of dilutions of test compounds diluted in DMSO (final concentration of 1%) in a volume of 10 microL at 37° C. for 60 min. Undiluted reaction products or an 80-fold dilution of reaction products (10 microL of either) prepared in reaction buffer containing 0.2 mM TCEP and 10 mM EDTA is mixed with 5 microL of d2-cGMP plus 5 microL of Eu^3+ cryptate-labeled anti-cGMP, each diluted in buffer containing 0.1 M KPO4 pH 7.5, 0.4 M KF, 20 mM EDTA, 0.2% BSA. After a one h incubation at room temperature in the dark, the mixtures are quantified on an EnVision plate reader (PerkinElmer) according to manufacturer instructions (laser excitation 337 nm, emission 620 and 665 nm). The ratio at each compound concentration is converted to nM cGMP using the linear portion of a calibration curve. Log compound concentration is plotted against combined undiluted and diluted nM cGMP values to determine the EC50 for each curve.

[3] = pION system solution buffer, pH 7.4, pH 7.4, aqueous buffer, Solubility (pH 7.4), pH 7.4 buffer, 16-19 h incubation, 1.0% DMSO
[4] = pION system solution buffer, pH 4.5, pH 4.5, aqueous buffer, Solubility (pH 4.5), pH 4.5 buffer, 16-19 h incubation, 1.0% DMSO

| SMILES | solubility [1, 3] | solubility [1, 4] | EC50 [2] | also measured |
| --- | --- | --- | --- | --- |
| Cc1ccc(OCc2ccc(C(=O)N3CCCC3)cc2C)c(-c2csc(N3CCC(C(=O)O)CC3)n2)c1 [Compound 7] | 42 µg/mL (≈ 80.8 µM) | – | – | Solubility (pH 4.5) ([1]; pH 4.5 buffer, 16-19 h incubation, 1.0% DMSO): >62 μg/mL |
| Cc1cc(CN2CCCCC2)ccc1COc1c(C)cccc1-c1csc(N2CCC(C(=O)O)CC2)n1 [Compound 16] | 33 µg/mL (≈ 63.5 µM) | > 51 µg/mL | – | – |
| Cc1ccc(OCc2ccc(CN3CCCCC3)cc2C)c(-c2csc(N3CCC(C(=O)O)CC3)n2)c1 [Compound 18] | > 63 µg/mL | > 63 µg/mL | – | – |
| Cc1ccc(OCc2ccc(CN3CCOCC3)cc2C)c(-c2csc(N3CCC[C@@H](C(=O)O)C3)n2)c1 [Compound 19] | > 52 µg/mL | > 52 µg/mL | – | – |
| COCCN(C)Cc1ccc(COc2ccc(C)cc2-c2csc(N3CCC(C(=O)O)CC3)n2)c(C)c1 [Compound 27] | > 63 µg/mL | > 63 µg/mL | – | – |
| Cc1cc(CN2CCC(C(N)=O)CC2)ccc1COc1c(C)cccc1-c1csc(N2CCC(C(=O)O)CC2)n1 [Compound 93] | > 56 µg/mL | > 56 µg/mL | – | – |
| Cc1cc(CN2CCS(=O)(=O)CC2)ccc1COc1ccc(C#N)cc1-c1csc(N2CC3C(C2)C3C(=O)O)n1 (stereo not shown) [Compound 116] | – | – | 1100 nM | – |
| Cc1cc(CN2CCS(=O)(=O)CC2)ccc1COc1ccccc1-c1csc(N2CC3CCC(C2)C3C(=O)O)n1 (stereo not shown) [Compound 120] | – | – | 18 nM | – |
| Cc1ccc(OCc2ccc(CN3CCS(=O)(=O)CC3)cc2C)c(-c2csc(N3CCC(C(=O)O)CC3C)n2)c1 (stereo not shown) [Compound 124] | – | – | 30 nM | – |
| Cc1cc(CN2CCS(=O)(=O)CC2)ccc1COc1ccc(Cl)cc1-c1csc(N2CC3C(C2)C3C(=O)O)n1 (stereo not shown) [Compound 128] | > 58 µg/mL | 0.45 µg/mL (≈ 0.765 µM) | – | – |
| Cc1cc(CN2CCS(=O)(=O)CC2)ccc1COc1ccc(Cl)cc1-c1csc(N2CCC(C(=O)O)C(C)C2)n1 (stereo not shown) [Compound 144] | – | – | 54 nM | – |
| Cc1cc(CN2CCS(=O)(=O)CC2)ccc1COc1ccc(F)cc1-c1csc(N2CCC(C(=O)O)C(C(F)(F)F)C2)n1 (stereo not shown) [Compound 155] | > 63 µg/mL | 0.3 µg/mL (≈ 0.468 µM) | – | – |
| COCCCNC(=O)c1ccc(COc2ccc(C)cc2-c2csc(N3CCC(C(=O)O)CC3)n2)c(C)c1 [Compound 159] | – | – | 1900 nM | – |
| Cc1ccc(OCc2ccc(C(=O)N(C)CCN(C)C)cc2C)c(-c2csc(N3CCC(C(=O)O)CC3)n2)c1 [Compound 160] | – | – | 2800 nM | – |
| Cc1ccc(OCc2ccc(C(=O)N(C)CC3CCCCC3)cc2C)c(-c2csc(N3CCC(C(=O)O)CC3)n2)c1 [Compound 161] | – | – | 91 nM | – |
| COCCCN(C)C(=O)c1ccc(COc2ccc(C)cc2-c2csc(N3CCC(C(=O)O)CC3)n2)c(C)c1 [Compound 162] | – | – | 71 nM | – |
| Cc1ccc(OCc2ccc(C(=O)NC3CCCCC3)cc2C)c(-c2csc(N3CCC(C(=O)O)CC3)n2)c1 [Compound 163] | – | – | 750 nM | – |
| Cc1ccc(OCc2ccc(C(=O)N(C)C3CCCCC3)cc2C)c(-c2csc(N3CCC(C(=O)O)CC3)n2)c1 [Compound 164] | – | – | 55 nM | – |
| Cc1cc(CN2CCCCC2)ccc1COc1ccc(C#N)cc1-c1csc(N2CCC(C(=O)O)CC2)n1 [Compound 169] | > 57 µg/mL | > 57 µg/mL | – | – |
| Cc1cc(CN2CCC(O)CC2)ccc1COc1ccc(C#N)cc1-c1csc(N2CCC(C(=O)O)CC2)n1 [Compound 170] | 24 µg/mL (≈ 43.9 µM) | 37 µg/mL (≈ 67.7 µM) | – | – |

| SMILES | solubility [1, 3] | solubility [1, 4] | EC50 [2] | also measured |
| --- | --- | --- | --- | --- |
| Cc1ccc(OCc2ccc(CN3CCC(O)CC3)cc2C)c(-c2csc(N3CCC(C(=O)O)CC3)n2)c1 [Compound 175] | > 55 µg/mL | > 55 µg/mL | – | – |
| Cc1ccc(OCc2ccc(CN3CCOCC3)cc2C)c(-c2csc(N3CC[C@H](C(=O)O)[C@H](C)C3)n2)c1 [Compound 176] | – | – | 160 nM | – |
| Cc1ccc(OCc2ccc(CN3CCOCC3)cc2C)c(-c2csc(N3CCC(C(=O)O)CC3C)n2)c1 (stereo not shown) [Compound 177] | – | – | 170 nM | – |
| COCCN(C)C(=O)c1ccc(COc2ccc(C)cc2-c2csc(N3CCC(C(=O)O)CC3)n2)c(C#N)c1 [Compound 178] | – | – | 270 nM | – |
| Cc1cc(C(=O)N2CCCCC2)ccc1COc1ccc(Cl)cc1-c1csc(C2CCC(C(=O)O)CC2)n1 (stereo not shown) [Compound 182] | – | – | 1600 nM | – |
| Cc1cc(C(=O)N2CCCCC2)ccc1COc1ccc(C#N)cc1-c1csc([C@H]2CC[C@H](C(=O)O)CC2)n1 [Compound 183] | – | – | 4400 nM | – |
| Cc1cc(C(=O)N2CCCCC2)ccc1COc1ccc(C#N)cc1-c1csc(C2=CCC(C(=O)O)CC2)n1 (stereo not shown) [Compound 184] | – | – | 1800 nM | – |
| Cc1cc(CN2CCOCC2)ccc1COc1ccccc1-c1csc(N2CCC(C(=O)O)C(C(F)(F)F)C2)n1 (stereo not shown) [Compound 185] | – | – | 2700 nM | – |
| Cc1cc(CN2CCOCC2)ccc1COc1ccc(Cl)cc1-c1csc(N2CC3C(C2)C3C(=O)O)n1 (stereo not shown) [Compound 187] | – | – | 390 nM | – |
| Cc1cc(CN2CCOCC2)ccc1COc1ccc(Cl)cc1-c1csc(C2=CCC(C(=O)O)CC2)n1 (stereo not shown) [Compound 188] | – | – | 830 nM | – |
| Cc1cc(CN2CCOCC2)ccc1COc1ccc(C#N)cc1-c1csc(C2=CCC(C(=O)O)CC2)n1 (stereo not shown) [Compound 189] | – | – | 9000 nM | – |
| Cc1cc(CN2CCOCC2)ccc1COc1ccc(F)cc1-c1csc(C2CCC(C(=O)O)CC2)n1 (stereo not shown) [Compound 190] | – | – | 2500 nM | – |
| Cc1cc(CN2CCOCC2)ccc1COc1ccc(F)cc1-c1csc(C2=CCC(C(=O)O)CC2)n1 (stereo not shown) [Compound 191] | – | – | 530 nM | – |
| Cc1cc(CN2CCOCC2)ccc1COc1ccccc1-c1csc(C2=CCC(C(=O)O)CC2)n1 (stereo not shown) [Compound 193] | – | – | 2400 nM | – |
| CCC(=O)N1CCN(Cc2ccc(COc3ccc(C)cc3-c3csc(N4CCC(C(=O)O)CC4)n3)c(C)c2)CC1 [Compound 194] | – | – | 150 nM | – |
| Cc1ccc(OCc2ccc(CN3CCN(C(=O)C(C)(C)C)CC3)cc2C)c(-c2csc(N3CCC(C(=O)O)CC3)n2)c1 [Compound 195] | – | – | 83 nM | – |
| Cc1ccc(OCc2ccc(CN3CCOCC3)cc2C)c(-c2csc(N3CCC(C(=O)O)C(C(F)(F)F)C3)n2)c1 (stereo not shown) [Compound 213] | 41 µg/mL (≈ 69.5 µM) | 32 µg/mL (≈ 54.3 µM) | – | – |
| Cc1ccc(OCc2ccc(C(=O)N(C)C)cc2C)c(-c2csc(N3CCC(C(=O)O)CC3)n2)c1 [Compound 294] | – | – | 290 nM | – |
| CCc1cc(C(=O)N2CCN(C)C(=O)C2)ccc1COc1ccc(C)cc1-c1csc(N2C[C@H]3CC[C@@H](C2)[C@H]3C(=O)O)n1 [Compound 295] | – | 0.45 µg/mL (≈ 0.747 µM) | – | solubility ([1]; pH 6.8, aqueous buffer, Solubility (pH 6.8), pH 6.8): 60 µg/mL (≈ 99.5 µM) |
